# Assay: Human HepG2 cell viability assay in 384 well format
# Format: toxicity, cell-based
# Design: dose 125 nL, time 70.5 hour; cytotoxicity at 70.5 h: concentration not given beside the values
# Conditions: HepG2 cells, read-out: Inhibition
row,Structure (SMILES),cytotoxicity at 70.5 h [%]
1,CC(CO)NC(=O)Nc1ccc(COC2CCCC2)cc1 (centres undefined),-2.03
2,Cc1cccnc1CN1CCN(C(=O)CCn2ccc(=O)[nH]c2=O)CC1,-9.8
3,O=C(C1CC1)N1CCc2[nH]cnc2C12CCN(C1CCOCC1)CC2,-2.02
4,Cc1cn2c(n1)CCC(NC(=O)c1cncnc1C)C2 (centres undefined),-5.83
5,NC(=O)c1ccc(CN2CCC(N3CCCCC3)CC2)cc1,-1.57
6,COCCN(C)C[C@@H]1CN(c2nnc(C(C)C)s2)C[C@@H]1CO,-9.43
7,CN(C)C(=O)c1cnc2n1CCN(Cc1ccncc1)C2,19.9
8,CN(Cc1cccnc1)[C@@H]1CN(c2ncc(F)cn2)[C@@H]2CCCO[C@H]12,-11.8
9,Cc1ccc(CNC2(Cc3cc(CO)on3)COC2)o1,-1.63
10,CN(Cc1c(F)cccc1Cl)C(=O)CN(C)C1CCc2ccccc21 (centres undefined),-5.53
11,CC(C)c1noc(C(C)N2CCN(Cc3cccs3)CC2)n1 (centres undefined),12.6
12,Cc1cnn(CCNCc2cccc(C#N)c2)c1,4.17
13,NC(=O)N1CCCN(C2CCCCc3ccccc32)CC1 (centres undefined),-1.64
14,Cn1cccc1C(=O)N1CCCC2(CCN(CCN3CCCC3)C2=O)C1 (centres undefined),-2.83
15,O=C(NCCNc1ncccn1)c1ccc(-c2ccco2)[nH]c1=O,-2.56
16,Cc1ccc(C(=O)N2CCn3c(COCC4CC4)cnc3C2C)s1 (centres undefined),-4.86
17,Cc1ncsc1CN1C[C@@H]2COC[C@]2(C(=O)NC(C)C)C1,-11.1
18,CC(C)C1CN(Cc2nccn2C)CCC(=O)N1CC1CC1 (centres undefined),-2.87
19,CCS(=O)(=O)N1CCC(c2nnc(CN3CCCCC3)n2C)CC1,-3.65
20,COc1ccccc1-c1cc(NC(=O)CCC2CCCO2)[nH]n1 (centres undefined),36.9
21,O=C(CCN1CCCC1=O)NCc1cccnc1Oc1ccccc1,-3.36
22,CCc1[nH]ncc1C(=O)N1CCCC(n2ccnc2C(C)C)C1 (centres undefined),1.64
23,CC(Oc1ccccc1C(F)(F)F)C(=O)NCC(N)=O (centres undefined),-1.2

row,Structure (SMILES),cytotoxicity at 70.5 h [%]
1,COc1c(C)cnc(CNCC(C)C)c1C,-4.09
2,CCc1cc(N(C)Cc2ccncn2)n2nc(C)c(C)c2n1,-5.09
3,COc1cc(CN2CC(=O)N(c3ccc(C)cc3)CC2C)cc(OC)c1 (centres undefined),-12
4,O=C1COc2ccc(Cl)cc2CN1CC1CC1,-12
5,CCn1nc(C)c(CCNC(=O)c2cccc(-n3cccn3)c2)c1C,-3.23
6,CC(C(=O)NC(N)=O)N(C)CCCc1cc(-c2ccccc2)no1 (centres undefined),-3.63
7,COc1nccnc1N1CCN(Cc2ccc3c(c2)OCO3)C(=O)C1,20.7
8,CN(C(=O)c1cccc(Cl)c1)C1CCN(c2ccccn2)CC1,2.1
9,CC(C)C(NC(=O)Cn1nc2c(cc1=O)CCCC2)C(=O)O (centres undefined),-13.5
10,Cc1nccn1CCN1C(=O)CC2(CCCC2)CC1=O,-9
11,CC(C)Nc1cccc(CC2CCN(C)C2)n1 (centres undefined),-5.89
12,CCCc1cc(C(=O)N(C)Cc2cnn(-c3cccc(OC)c3)c2)[nH]n1,-6.08
13,O=c1c(S(=O)(=O)N2CCCC2)cccn1Cc1ccc(F)cc1Cl,31.5
14,NC(=O)c1ccc(C2CCCN2C(=O)CCc2nc3ccccc3s2)s1 (centres undefined),-1.87
15,CCOCC(=O)N1CSCC1C(=O)N(C)Cc1ccco1 (centres undefined),15.7
16,Cc1cc(CC(=O)N2CCCC2c2nc(C(C)C)no2)on1 (centres undefined),5.26
17,CC(C)CC(Cc1cccc(Br)c1)C(=O)O (centres undefined),22.2
18,O[C@@H]1CN(CC2=Cc3cc(Cl)ccc3OC2)CC[C@H]1N1CCCCCC1,-11
19,CSc1[nH]nc(NC(=O)c2ccccc2)c1C#N,-10
20,COc1ccc(C(=O)N2CCN(C(=O)Cn3nccc3C)CC2)cc1,1.46
21,Cc1noc(Cl)c1CCC(=O)N1CCC(Nc2cccnn2)CC1,-0.162
22,CCOc1cc(CNCc2nc(C)cc(=O)[nH]2)c(Cl)cc1OC(C)C,-3.61
23,CNC(=O)c1cn[nH]c1C1(C)CCCN(Cc2nccn2C(C)C)C1 (centres undefined),-2.7

row,Structure (SMILES),cytotoxicity at 70.5 h [%]
1,O=c1[nH]nc(CNc2cncc(Br)c2)[nH]1,29.9
2,Cc1cccc(C(=O)N(C)C2CCN(c3ccccn3)CC2)c1C,2.5
3,CCOc1cccc(CNc2ccccc2C(F)(F)F)c1O,13.7
4,CC(C)c1noc(CCCC(=O)NC(C)c2ccccn2)n1 (centres undefined),-9.67
5,CC(C)COC(C)C(=O)NCc1ccc(-n2cncn2)nc1 (centres undefined),3.66
6,Cc1ccc(CN2CCOCS2(=O)=O)cc1F,-9.79
7,CS(=O)(=O)c1ccc(NC(=O)NCCC2=CCCCC2)cc1,-10.3
8,COCCN1CCCCC12CC(=O)N(c1cccc(C#N)c1)C2 (centres undefined),-4.04
9,Cc1nn(-c2ncnc3[nH]cnc23)c2c1C(C(C)(C)C)CC(=O)N2 (centres undefined),0.0512
10,CC(NC(N)=O)C(=O)N1CCCN(Cc2nccn2C(C)C)CC1 (centres undefined),-11.9
11,CN1CCN(CC(CC(=O)Nc2ccc(Cl)cc2)C(=O)O)CC1 (centres undefined),-5.4
12,Cc1c[nH]c(CN(C)C(=O)[C@]23CNC[C@H]2CNC3)n1,-4.74
13,CCCn1nc2c(cc1=O)CN(Cc1cc(C)no1)CC2,-8.28
14,CC(C)c1noc(CCCC(=O)NC2CCS(=O)(=O)C2)n1 (centres undefined),-0.791
15,COC(=O)CN(C)C1CCc2ccccc21 (centres undefined),-4.82
16,COCCn1c2c(ccc1=O)CCN(C(=O)CC1CC1)CC2,-2.25
17,CNC(=O)c1cnn2c(C3CCCN3)ccnc12 (centres undefined),6.37
18,COc1cccc(-n2nnc(C(=O)N3CCN(C(C)=O)CC3)c2C)c1,-6.81
19,CC(C(=O)NCCN1CCOCC1)n1cncn1 (centres undefined),-11.7
20,CC(=O)Nc1ccc(CNC(=O)CNCc2sc(C)nc2C)cc1,6.71
21,Cc1cc(C)nc(N2CCN(Cc3nccn3C)CC2)n1,-2.76
22,O=S(=O)(c1ccc(-c2cnco2)cc1)N1CCCC(O)(CO)CC1 (centres undefined),12.5
23,CC(=O)NCC(=O)N1CCOCC(Cc2ccc3c(ccn3C)c2)C1 (centres undefined),-8.14

row,Structure (SMILES),cytotoxicity at 70.5 h [%]
1,Cc1n[nH]c(C)c1NC(=O)CN1CCCC1c1c(C)nn(C)c1C (centres undefined),1.54
2,CO[C@@H]1CC[C@H]2[C@H]1OCCN2S(=O)(=O)c1cn(C)cn1,0.221
3,CN(Cc1noc(C2CC2)n1)C1CCN(CC(=O)N2CCOCC2)C1 (centres undefined),-3.02
4,O=C1c2ccccc2C(=O)N1CC(O)Cn1nc(-c2cccs2)oc1=O (centres undefined),5.68
5,O=C(CS(=O)(=O)c1ncccc1Cl)NC1CCCc2ccccc21 (centres undefined),12
6,Cc1ccc(CN(CCN(C)C)Cc2c(C)nc3sccn23)o1,6.95
7,CC(=O)N1CCCC(c2nnc3n2CCN(C(=O)C2CCCCC2)C3)C1 (centres undefined),-8.2
8,O=C([C@H]1C[C@H]2OCC[C@H]2N(CC2CCOCC2)C1)N1CCCC1,-2.01
9,CCCC(C#N)NC(=O)Cc1csc(CC)n1 (centres undefined),-0.509
10,CN1CCCC(c2cccc(-c3ccccc3F)n2)C1 (centres undefined),-2.39
11,Cc1cc(=O)[nH]c(NCCNC(=O)C(c2ccc(F)cc2)N(C)C)n1 (centres undefined),11.9
12,COc1cccc(COCC(=O)N2CCN(CC(C)(C)O)CC2)c1,4.32
13,CN(C)c1ccc(C(=O)NCc2ccc(N3CCOCC3)cc2)cn1,14.5
14,Cc1nn(C)c(C)c1C1CCCN1C(=O)c1ccc(N(C)C)nc1 (centres undefined),-0.439
15,COc1ccc(NC(=O)c2cnc(C3CCN(C(C)=O)C3)nc2C)cc1 (centres undefined),17.3
16,Cc1noc(CN2C[C@H]3CC[C@@H]2CN(C2Cc4ccccc4C2)C3)n1,4.75
17,NC(=O)NC(=O)CCSc1ccccc1Cl,-17.5
18,CC(C)Nc1nc2c(c(NC3CC3)n1)CCN(Cc1nccn1C)CC2,-1.1
19,Cc1cc(C)nc(NCCC(=O)NCCn2ccnc2C)n1,3.01
20,Cn1ncc2c1CCCC2NCc1cccnc1 (centres undefined),-18.9
21,OCCN1CCN(Cc2coc(-c3cccc(Cl)c3)n2)CC1,24.5
22,O=C(c1ccc2cccnc2n1)N(Cc1ccsc1)CC1CCCO1 (centres undefined),-12.4
23,CCOCc1nc2c(c(N3CC=CC3)n1)CCN(CC1CC1)CC2,9.81

row,Structure (SMILES),cytotoxicity at 70.5 h [%]
1,COCCNC(=O)CN1CCC(N2CCN(C)C2=O)CC1,-13.2
2,CCOc1cccc(NC(=O)c2cscn2)n1,-9.11
3,COc1ccc(F)cc1C(=O)N1CC(c2ccncc2)C1,-10
4,Cc1noc([C@H]2C[C@H]3OCC[C@H]3N(S(=O)(=O)C3CC3)C2)n1,-11.6
5,Cc1ccc(CN2CCc3c(nc4cc(C5CC5)nn4c3O)C2)s1,18.3
6,Cc1cc(NCCc2nc(C)c[nH]2)nc(-c2ccccc2O)n1,-1.72
7,Cc1ccc(NC(=O)c2n[nH]c(-n3cnnc3)n2)cc1C,28.4
8,Cc1csc2ncnc(N3CCC(Cn4cc(C(C)(C)O)nn4)CC3)c12,5.18
9,O=c1[nH]nc(CNCc2ccc(OC34CCCN(CC3)C4)cc2)[nH]1 (centres undefined),-4.91
10,CCC(C)(COc1ncccc1Cl)NCC(=O)NCC(C)C (centres undefined),-30.2
11,Cc1nn(C)c2c(N3CCSCC3)nc(C3CC3)nc12,-4.86
12,CN1C[C@@H](F)[C@@H](OCc2nc3ccccc3n2C)C1,-2.45
13,Cc1ccoc1C(=O)NCCS(=O)(=O)N1CCSCC1,5.89
14,Cc1ccc(C(CNCc2c[nH]nc2C)N(C)C)cc1 (centres undefined),11.2
15,N#Cc1ccc(NCC(=O)Nc2ncn(Cc3cccnc3)n2)cc1,-6.44
16,CN(CCn1cnc(-c2ccccc2)c1-c1ncc[nH]1)S(C)(=O)=O,7.51
17,COCCN1C2(CCN(C(=O)c3cccs3)C2)c2ccccc2S1(=O)=O (centres undefined),2.42
18,CN(C)c1nc2c(c(N(C)C)n1)CCN(C(=O)CN1C[C@@H]3CC[C@H]1C3)C2,-6.59
19,O=C(NCCc1cc2nc(-c3ccncc3)ccn2n1)C1CC1,-6.41
20,CCNC(=O)[C@@H]1C[C@H](N)CN1C(=O)CCc1ccccc1Cl,-4.67
21,Cc1noc(C)c1CC(=O)N1CCCC(Cn2ccnc2C)C1 (centres undefined),-16.8
22,CCc1cc(O)nc(C2CCCN2C(=O)c2cc(C)no2)n1 (centres undefined),8.47

# From ChEMBL document CHEMBL3507680, “University of Dundee, Gates Library screen for HepG2 cell viability”
